In brackets after ≈: the same amount, converted by molar mass.

The conditions of the data set: buffer; pH 7.4; 200.0 µM.
One may read the solubility (kinetic) as solubility judged after dilution from a stock solution rather than from solid. `O=C(COC(=O)c1ccc(N2CCCC2=O)cc1)c1ccccc1` registered a solubility (kinetic) of 3.7 µg/mL (≈ 11.4 µM).

Take `O=C(NCCN1CCCCC1)Nc1ccccc1Cl`: the kinetic solubility is greater than 42.3 µg/mL.

Take `NS(=O)(=O)c1cnccc1Oc1cccc(Cl)c1`: the solubility (kinetic) is greater than 42.7 µg/mL.

In the case of `CSc1ncccc1C(=O)Nc1cccc(S(=O)(=O)N2CCCCCC2)c1`, the solubility (kinetic) is 11.2 µg/mL (≈ 27.6 µM).

`S=C(NCc1ccccc1)N1CCN(c2ccccc2)CC1` had a solubility (kinetic) of 0.5 µg/mL (≈ 1.61 µM).

The compound `C=CCn1c(SCC(=O)Nc2cccc(S(N)(=O)=O)c2)nc2sc(C)c(C)c2c1=O` gave a solubility (kinetic) of 3 µg/mL (≈ 6.46 µM).

Regarding `Cc1ccccc1C(=O)NC1CCN(CC(=O)NC2CCCCC2)CC1`, the solubility (kinetic) was greater than 53.6 µg/mL.

In the case of `Cn1cnc(S(=O)(=O)Nc2ccccc2N2CCOCC2)c1`, the kinetic solubility is greater than 48.4 µg/mL.

In turn, `CCOC(=O)c1cnc2c(ccc3ccccc32)c1N` came in with a solubility (kinetic) of less than 0.3 µg/mL.

`CN(C)/C=N/c1nc(-c2ccc3ccccc3c2)cs1`: the kinetic solubility was 16 µg/mL (≈ 56.9 µM).

Compound `Cc1ccnc(SCC(=O)Nc2cc(C)on2)n1` gave a solubility (kinetic) greater than 39.6 µg/mL.

`COC(=O)CSc1nc(N2CCOCC2)c2c(c1C#N)CCCC2` showed a solubility (kinetic) of 25.6 µg/mL (≈ 73.7 µM).

`CC1CCCN1CC#CC(O)(c1ccccc1)c1ccccc1.Cl` (centres undefined): the solubility (kinetic) was found to be 46.9 µg/mL. Compared with the last compound, the solubility kinetic is about 1.8-fold higher.

`COc1cccc(C2=NOC(C(=O)NCc3cccnc3)C2)c1` (centres undefined): the kinetic solubility is greater than 46.7 µg/mL.

Compound `Cc1ccc(CN(C)C(=O)c2cccc(S(=O)(=O)N3CCc4ccccc43)c2)cc1` returned a solubility (kinetic) of 5.8 µg/mL (≈ 13.8 µM).

As for `CC1(C)CC(=O)C2=C(C1)OC(N)=C(C#N)C2c1ccc[nH]1` (centres undefined), the solubility (kinetic) is greater than 42.5 µg/mL.

`CC(CCc1ccccc1)NC(=O)C1CCC1` (centres undefined): the solubility (kinetic) is greater than 34.7 µg/mL.

Regarding `CC1(C)CN=C(Nc2ccc(F)c(Cl)c2)S1`, the kinetic solubility came to 0.8 µg/mL (≈ 3.09 µM).

In the case of `CCOc1ccc(N(CC(=O)N2CCCCCC2)S(C)(=O)=O)cc1`, the kinetic solubility was found to be 31 µg/mL (≈ 87.5 µM).

On to `CCOc1ccc(CCNC(=O)COC(=O)c2ccncc2)cc1OCC`, for which the solubility (kinetic) is greater than 55.9 µg/mL.

With `COc1ccccc1CNC(=O)c1cc(C)nc2ccccc12`, the solubility (kinetic) was found to be 41.8 µg/mL (≈ 136 µM).

`O=C1CSC(=Nc2cccc(Cl)c2Cl)N1Cc1cccnc1` displayed a kinetic solubility of 30.8 µg/mL (≈ 87.4 µM).

Turning to `CCSc1nc2ccccc2c(=O)n1Cc1ccc(F)cc1`, the solubility (kinetic) is less than 0.3 µg/mL.

In the case of `CC(C)n1c(CN(C)Cc2ccccc2)nc2c1c(=O)n(C)c(=O)n2C`, the kinetic solubility is 23.8 µg/mL (≈ 67 µM).

As to `CCN(CC)CCn1c(=S)[nH]c2ccc(Br)cc2c1=O`, the solubility (kinetic) is greater than 53.4 µg/mL.

In the case of `CC(=O)Oc1ccc2c(=O)oc(-c3ccccc3)nc2c1`, the solubility (kinetic) was 3.1 µg/mL (≈ 11 µM).

The compound `CCOC(=O)C1C(c2ccccc2O)NC(=O)NC1(O)C(F)(F)F` (centres undefined) yielded a solubility (kinetic) greater than 52.2 µg/mL.

With `COc1ccc(NC(=O)COC(=O)CCc2ccc(S(=O)(=O)N3CCOCC3)cc2)cc1Cl`, the solubility (kinetic) is 19.6 µg/mL (≈ 39.4 µM).

Compound `CCN(CC)P(=O)(c1nccn1C)N(CC)CC` registered a kinetic solubility of 40.7 µg/mL (≈ 149 µM).

As for `Cc1noc(NS(=O)(=O)c2ccc(NC(=O)C(C)C)cc2)c1C`, the solubility (kinetic) was greater than 50.6 µg/mL.

With `Cc1ccc(S(=O)(=O)Nc2ccccc2N2CCCCC2)cc1`, the solubility (kinetic) was 3.1 µg/mL (≈ 9.38 µM).

As to `COc1cc(SC)ccc1C(=O)OCC(=O)N1CC(=O)Nc2ccccc21`, the solubility (kinetic) came to 17.6 µg/mL (≈ 45.5 µM).

As for `Cn1nccc1C(=O)OCC(=O)Nc1ccccc1`, the solubility (kinetic) was greater than 38.9 µg/mL.

For the compound `Cc1ccc(S(=O)(=O)NCCOc2cc(C)ccc2C)cc1`, the kinetic solubility came to 14.4 µg/mL (≈ 45.1 µM).

For the compound `Cc1cn2c(nc1=O)OC1CC2OC1CO` (centres undefined), the kinetic solubility was greater than 33.6 µg/mL.

`O=C(NCCCCO)c1ccc2c3c(cccc13)CC2`: the solubility (kinetic) is 39.2 µg/mL (≈ 146 µM).

Compound `Cc1ccc(NC(=O)c2nc3nccc(C)n3n2)c(C)c1` came in with a solubility (kinetic) greater than 42.2 µg/mL.

With `O=C(OCc1cccc([N+](=O)[O-])c1)c1ccc[nH]c1=O`, the solubility (kinetic) was greater than 41.1 µg/mL.

The compound `COc1ccc(NC(=O)CCCc2ccccc2)cc1OC` gave a solubility (kinetic) of 29.2 µg/mL (≈ 97.5 µM).

In turn, `CC(C)(C)OC(=O)NCCc1n[nH]c(=S)o1` gave a solubility (kinetic) greater than 36.8 µg/mL.

`Oc1ccc(N2Cc3ccccc3C2)cc1`: the solubility (kinetic) came out at 9.9 µg/mL (≈ 46.9 µM).

In turn, `COc1ccc(C(=O)NCc2ccc3c(c2)OCO3)cc1` yielded a solubility (kinetic) of 42.4 µg/mL (≈ 149 µM).

On to `O=C(O)c1cc(-c2cccs2)nc2ccc(F)cc12`, for which the solubility (kinetic) is greater than 41 µg/mL.

In turn, `O=C(COC(=O)COc1ccccc1)NCCC1=CCCCC1` had a kinetic solubility of 38.5 µg/mL (≈ 121 µM).

`O=C(/C=C/c1ccco1)N(Cc1ccc(Cl)cc1)C1CCS(=O)(=O)C1` (centres undefined): the kinetic solubility is 46.2 µg/mL (≈ 122 µM). This solubility kinetic and that of the compound before are within 1.5-fold of each other.

`CC(=O)c1ccccc1NC(=O)CSc1nc2ccccc2c(=O)n1CCCN1CCOCC1` gave a kinetic solubility of 1.8 µg/mL (≈ 3.75 µM). Compared with the last compound, the solubility kinetic is about 26-fold lower.

Compound `COCCNc1nc2nonc2nc1N1C[C@H]2CC[C@H]1C2` displayed a kinetic solubility greater than 43.5 µg/mL.

Compound `Cc1ccc(NS(=O)(=O)c2ccc(C(=O)NC3CCN(Cc4ccccc4)CC3)cc2)cc1.Cl` gave a solubility (kinetic) of 6.4 µg/mL.

In turn, `CCN1C(=O)C(C(=O)c2ccccc2)SC1=S` (centres undefined) came in with a solubility (kinetic) of 38.4 µg/mL (≈ 145 µM).

`CCOc1ccccc1C(=O)NC(C(=O)NCCc1ccccn1)C(C)C` (centres undefined): the solubility (kinetic) was greater than 55.4 µg/mL.

`CN1CCN(C(=S)c2cn(Cc3cccc(F)c3)c3ccccc23)CC1` registered a kinetic solubility of 28 µg/mL (≈ 76.2 µM).

In turn, `COc1cc2nc(CN3CCN(S(=O)(=O)c4cc(C)ccc4C)CC3)[nH]c(=O)c2cc1OC` had a kinetic solubility of 9.7 µg/mL (≈ 20.5 µM).

Compound `Cc1nn(C)cc1S(=O)(=O)Nc1cccc(Cl)c1` had a kinetic solubility greater than 42.9 µg/mL.

For `COc1ccc(-c2ccc3c(N)c(C(=O)NC(C)C)sc3n2)cc1OC`, the solubility (kinetic) worked out at 30.1 µg/mL (≈ 81 µM).

`O=C1CCCCCCCCCC/C(=N\O)CCCO1`: the kinetic solubility is 9.8 µg/mL (≈ 36.4 µM).

With `Cc1csc(SCC(=O)Nc2ccc(C)c(F)c2)n1`, the kinetic solubility is greater than 44.5 µg/mL.

`COc1ccc(NC(=O)COC(=O)CCc2nc3ccccc3c(=O)[nH]2)cc1Cl` yielded a kinetic solubility of 59.7 µg/mL (≈ 144 µM).

`N#C/C(=C\c1ccncc1)c1nc2ccccc2[nH]1`: the kinetic solubility was determined as 24.8 µg/mL (≈ 101 µM).

Regarding `CC(C)NC(=O)c1ccccc1NC(=O)Cc1ccc([N+](=O)[O-])cc1`, the kinetic solubility stood at 19.1 µg/mL (≈ 56 µM). The solubility kinetic values of the last two compounds are within 1.5-fold of each other.

Compound `COC(=O)CSc1nccc(-c2ccc(F)cc2)c1C#N` gave a kinetic solubility of less than 0.3 µg/mL.

`CC1CN(C(=O)CCNC(=O)c2ccc(Cl)cc2)CC(C)O1` (centres undefined) gave a solubility (kinetic) of 42.1 µg/mL (≈ 130 µM).

For `Fc1ccc(-c2csc(N3CCOCC3)n2)cc1`, the solubility (kinetic) was 2.1 µg/mL (≈ 7.94 µM). This solubility kinetic lies about 20-fold lower than the previous one.

Regarding `Cc1ccc(NC2=CC(=O)CC(C)(C)C2)cc1Cl`, the kinetic solubility came out at 16.2 µg/mL (≈ 61.4 µM). This solubility kinetic is about 7.7-fold higher than that of the compound before.

In turn, `Cc1ccsc1C(=O)OCC(=O)NCc1ccc(Cl)cc1` showed a kinetic solubility of 4.5 µg/mL (≈ 13.9 µM).

For the compound `CC(=O)c1cc(F)ccc1OCC(=O)Nc1ccc2c(c1)OCO2`, the kinetic solubility worked out at 7.8 µg/mL (≈ 23.5 µM).

Regarding `Cc1ccc(NC(=S)NC2CCSc3ccccc32)cc1C` (centres undefined), the kinetic solubility was less than 0.4 µg/mL.

In the case of `Cl.NC(N)=Nc1nc(-c2ccccc2)c2cc(Cl)ccc2n1`, the kinetic solubility came to 9.7 µg/mL.

As to `S=c1[nH]c2ccccc2n1CCOc1ccccc1`, the kinetic solubility was determined as 20.2 µg/mL (≈ 74.7 µM).

Compound `O=C(/C=C/c1ccco1)N1CCc2ccccc21` gave a kinetic solubility of 31.4 µg/mL (≈ 131 µM). This solubility kinetic is about 1.6-fold higher than that of the compound before.

Take `CCN(CC)C(=S)SC1CCCCN(C(=O)c2ccc(F)cc2)C1=O` (centres undefined): the solubility (kinetic) worked out at 5.2 µg/mL (≈ 13.6 µM). Against the preceding compound, the solubility kinetic is about 6-fold lower.

`O=C(NC(=S)N1CCN(c2ccccc2)CC1)c1ccccc1`: the solubility (kinetic) is 6.4 µg/mL (≈ 19.7 µM).

For the compound `CC(C)(C)C(=O)O/N=C(\N)COc1cccc(Cl)c1`, the kinetic solubility came out at 25.4 µg/mL (≈ 89.2 µM). Against the preceding compound, the solubility kinetic is about 4-fold higher.

Regarding `O=C1CCCc2c1nc(-c1ccccc1F)n2O`, the solubility (kinetic) is greater than 36.9 µg/mL.

`CNC(=O)c1sc(-c2ccccn2)nc1C` came in with a solubility (kinetic) greater than 35 µg/mL.

For the origin of these results see PubChem BioAssay AID1996.
